Tests used:
Assay type in all cases: in vivo
[1] = tested on: Phytophthora infestans; conditions: 750 g/ha; protective; tomato; 7 days after inoculation
[2] = tested on: Tetranychus urticae; assay: Tetranychus test (OP-resistant/dip treatment); conditions: 100 ppm, bean plants dipped, OP-resistant
Procedure: Tetranychus Test (OP-Resistant/Dip Treatment)
• Solvent: 7 parts by weight of dimethylformamide • Emulsifier: 2 parts by weight of alkylaryl polyglycol ether
To produce a suitable preparation of active compound, 1 part by weight of active compound is mixed with the stated amounts of solvent and emulsifier, and the concentrate is diluted with emulsifier-containing water to the desired concentration.
Bean plants (Phaseolus vulgaris) which are heavily infested by all stages of the greenhouse […] spider mite (Tetranychus urticae) are dipped into a preparation of active compound of the desired concentration.
After the desired period of time, the effect in % is determined. 100% means that all spider mites have been killed; 0% means that none of the spider mites have been killed.

[3] = tested on: Setaria; assay: Pre-emergence test, Setaria; conditions: 250 g of ai/ha, after three weeks, 100% = total destruction
Procedure: (§1) • Solvent: 5 parts by weight of acetone • Emulsifier: 1 part by weight of alkylaryl polyglycol ether
(§2) To produce a suitable preparation of active compound, 1 part by weight of active compound is mixed with the stated amount of solvent, the stated amount of emulsifier is added and the concentrate is diluted with water to the desired concentration.
(§3) Seeds of the test plants are sown in normal soil. After about 24 hours, the soil is sprayed with the preparation of active compounds such that the particular amounts of active compound desired are applied per unit area. The concentration of the spray liquor is chosen such that the particular amounts of active compound desired are applied in 1000 l of water/ha.
(§4) After three weeks, the degree of damage to the plants is rated in % damage in comparison to the development of the untreated control.
(§5) The figures denote: • 0%=no effect (like untreated control) • 100%=total destruction

[4] = tested on: Venturia inaequalis; assay: Venturia test (apple)/protective; conditions: protective, 10 days after inoculation; for % efficacy: 100 g/ha
Procedure: (§6) Venturia Test (Apple)/Protective […] To produce a suitable preparation of active compound, 1 part by weight of active compound is mixed with the stated amounts of solvent and emulsifier, and the concentrate is diluted with water to the desired concentration. To test for protective activity, young plants are sprayed with the preparation of active compound at the stated application rate. After the spray coating has dried on, the plants are inoculated with an aqueous conidia suspension of the apple scab pathogen Venturia inaequalis and then remain in an incubation cabin at about 20° C. and 100% relative atmospheric humidity for 1 day.

[5] = tested on: Plasmopara viticola; assay: Plasmopara test (grapevine)/protective; conditions: 144 h, protective, 6 days after inoculation, read-out: % efficacy
Procedure: as §6, with “Plasmopara” for “Venturia”, “(Grapevine)/Protective” for “(Apple)/Protective”, “spore” for “conidia”, “Plasmopara viticola” for “the apple scab pathogen Venturia inaequalis”, “day. […] The plants are then moistened and placed in an incubation cabin for 1 day.” for “day.”

[6] = tested on: peach aphid (Myzus persicae); assay: Myzus test; conditions: 500 ppm, cabbage leaves dipped
Procedure: Myzus Test • Solvent: 7 parts by weight of dimethylformamide • Emulsifier: 2 parts by weight of alkylaryl polyglycol ether To produce a suitable preparation of active compound, 1 part by weight of active compound is mixed with the stated amounts of solvent and emulsifier, and the concentrate is diluted with emulsifier-containing water to the desired concentration. Cabbage leaves (Brassica oleracea) which are heavily infested by the peach aphid (Myzus persicae) are treated by being dipped into the preparation of active compound of the desired concentration. After the desired period of time, the kill in % is determined. 100% means that all aphids have been killed; 0% means that none of the aphids have been killed.

[7] = tested on: Botrytis cinerea; assay: Botrytis test (bean)/protective; conditions: 48 h, protective, 2 days after inoculation, read-out: % efficacy
Procedure: Botrytis Test (Bean)/Protective
• Solvents: 24.5 parts by weight of acetone • 24.5 parts by weight of dimethylacetamide • Emulsifier: 1.0 part by weight of alkylaryl polyglycol ether
To produce a suitable preparation of active compound, 1 part by weight of active compound is mixed with the stated amounts of solvent and emulsifier, and the concentrate is diluted with water to the desired concentration.
To test for protective activity, young plants are sprayed with the preparation of active compound at the stated application rate. After the spray coating has dried on, 2 small pieces of agar colonized by Botrytis cinerea are placed on each leaf. The inoculated plants are placed in a dark chamber at about 20° C. and 100% relative atmospheric humidity.
2 days after the inoculation, the size of the infected areas on the leaves is evaluated. 0% means an efficacy which corresponds to that of the control, whereas an efficacy of 100% means that no infection is observed.

[8] = tested on: Echinochloa; assay: Pre-emergence test, Echinochloa; conditions: 250 g of ai/ha, after three weeks, 100% = total destruction
Procedure: as §1, §2, §3, §4, §5

[9] = tested on: Sugar beet; assay: Pre-emergence test, sugar beet; conditions: 250 g of ai/ha, after three weeks, 100% = total destruction
Procedure: as §1, §2, §3, §4, §5

[10] = tested on: larvae of the mustard beetle (Phaedon cochleariae); assay: Phaedon larvae test; conditions: 500 ppm, cabbage leaves dipped
Procedure: (§7) Phaedon larvae Test • Solvent: 7 parts by weight of dimethylformamide • Emulsifier: 2 parts by weight of alkylaryl polyglycol ether To produce a suitable preparation of active compound, 1 part by weight of active compound is mixed with the stated amounts of solvent and emulsifier, and the concentrate is diluted with emulsifier-containing water to the desired concentration. Cabbage leaves (Brassica oleracea) are treated by being dipped into the preparation of active compound of the desired concentration and are populated with larvae of the mustard beetle (Phaedon cochleariae) while the leaves are still moist. After the desired period of time, the kill in % is determined. 100% means that all beetle larvae have been killed; 0% means that none of the beetle larvae have been killed.

[11] = tested on: Alopecurus; assay: Pre-emergence test, Alopecurus; conditions: 250 g of ai/ha, after three weeks, 100% = total destruction
Procedure: as §1, §2, §3, §4, §5

[12] = tested on: caterpillars of the armyworm (Spodoptera frugiperda); assay: Spodoptera frugiperda test; conditions: 500 ppm, cabbage leaves dipped
Procedure: as §7, with “Spodoptera frugiperda” for “Phaedon larvae”, “caterpillars” for “larvae”, “armyworm (Spodoptera frugiperda)” for “mustard beetle (Phaedon cochleariae)”, “caterpillars” for “beetle larvae”

[13] = tested on: Sphaerotheca fuliginea; assay: Sphaerotheca test (cucumber)/protective; conditions: 100 g/ha, protective, 7 days after inoculation
Procedure: Sphaerotheca Test (Cucumber)/Protective […] To produce a suitable preparation of active compound, 1 part by weight of active compound is mixed with the stated amounts of solvent and emulsifier, and the concentrate is diluted with water to the desired concentration. To test for protective activity, young plants are sprayed with the preparation of active compound at the stated application rate. After the spray coating has dried on, the plants are inoculated with an aqueous spore suspension of Sphaerotheca fuliginea The plants are then placed in a greenhouse at about 23° C. and a relative atmospheric humidity of about 70%.

[14] = tested on: Meloidogyne incognita; assay: Meloidogyne test; conditions: 20 ppm, lettuce in sand, 100% = no galls
Procedure: Meloidogyne Test • Solvent: 7 parts by weight of dimethylformamide • Emulsifier: 2 parts by weight of alkylaryl polyglycol ether To produce a suitable preparation of active compound, 1 part by weight of active compound is mixed with the stated amounts of solvent and emulsifier, and the concentrate is diluted with water to the desired concentration. Containers are filled with sand, solution of active compound, Meloidogyne incognita egg/larvae suspension and lettuce seeds. The lettuce seeds germinate and the plants develop. On the roots, galls are formed. After the desired period of time, the nematicidal action is determined in % by the gall formation. 100% means that no galls have been formed; 0% means that the number of galls on the treated plants corresponds to that of the untreated control.

## Cc1ccc(-c2ccc(Cl)cc2)cc1C1(Cl)C(=O)CC2(CCCC2)C1=O (stereo not drawn) [Ex. I-1-3]
[1]
  Efficacy in %: 80%

## Cc1ccc(-c2ccc(Cl)cc2)cc1C1(Cl)C(=O)CC2(CCCCC2)C1=O (stereo not drawn) [Ex. I-1-1]
[2]
  Kill rate in % after 7d: 100%
[3]
  % damage, Setaria: 90%
[4]; Venturia inaequalis, 240 h, read-out: % efficacy
  Emax at 100 g/ha: 100%
[5]
  Emax at 100 g/ha: 100%
[6]
  Kill rate in % after 6d: 80%
[7]
  Emax at 100 g/ha: 96%
[8]
  % damage, Echinochloa: 100%
[9]
  % damage, Sugar beet: 0%
[10]
  Kill rate in % after 7d: 100%

## Cc1ccc(-c2ccc(Cl)cc2)cc1C1(Cl)C(=O)CC2(CCCC2)CC1=O [Ex. I-2-2]
[11]
  % damage, Alopecurus: 90%
[2]
  Kill rate in % after 7d: 98%
[3]
  % damage, Setaria: 90%
[8]
  % damage, Echinochloa: 95%
[9]
  % damage, Sugar beet: 0%
[12]
  Kill rate in % after 7d: 100%
[10]
  Kill rate in % after 7d: 100%

## CC1(C)CC(=O)C(Cl)(c2cc(-c3ccc(Cl)cc3)ccc2Cl)C(=O)C1 [Ex. I-2-1]
[11]
  % damage, Alopecurus: 70%
[2]
  Kill rate in % after 7d: 100%
[13]
  % efficacy: 97%
[3]
  % damage, Setaria: 80%
[4]
  % efficacy: 73%
[14]
  Effect in % after 14d (nematicidal action by gall formation): 90%
[1]
  Efficacy in %: 89%
[8]
  % damage, Echinochloa: 90%
[9]
  % damage, Sugar beet: 0%
[12]
  Kill rate in % after 7d: 100%
[10]
  Kill rate in % after 7d: 100%

## O=C1CC2(CCCC2)CC(=O)C1(Cl)c1cc(-c2ccc(Cl)cc2)ccc1Cl [Ex. I-2-5]
[2]
  Kill rate in % after 7d: 98%
[12]
  Kill rate in % after 7d: 100%
[10]
  Kill rate in % after 7d: 100%

## Cc1ccc(-c2ccc(Cl)cc2)cc1C1(Cl)C(=O)CC2(CCCCCC2)C1=O (stereo not drawn) [Ex. I-1-4]
[1]
  Efficacy in %: 90%

## CC(C)C1CC(=O)C(Cl)(c2cc(Br)ccc2Cl)C(=O)C1 (stereo not drawn) [Ex. I-2-6]
[14]
  Effect in % after 14d (nematicidal action by gall formation): 80%

## Cc1ccc(-c2ccc(Cl)cc2)cc1C1(Cl)C(=O)CC(C)(C)CC1=O [Ex. I-2-3]
[11]
  % damage, Alopecurus: 80%
[2]
  Kill rate in % after 7d: 100%
[3]
  % damage, Setaria: 90%
[4]
  % efficacy: 86%
[8]
  % damage, Echinochloa: 80%
[9]
  % damage, Sugar beet: 0%
[12]
  Kill rate in % after 7d: 100%
[10]
  Kill rate in % after 7d: 100%

## O=C1CC2(CCCC2)CC(=O)C1(Cl)c1cc(Br)ccc1Cl [Ex. I-2-4]
[2]
  Kill rate in % after 7d: 80%
